Experimental data as given in patent publication US11267802B2 (BEBETTER MED INC., priority 2015, dated 2022).

Legend:
H1975 = assay: Inhibition assay on tumor cell proliferation (CellTiter-Glo), H1975; format: cell-based, Human; conditions: Homo sapiens, NCI-H1975; H1975 (L858R and T790M EGFR double mutation), 72 hours, 10% bovine serum
EGFR T790M/L858R = target: T1, EGFR T790M/L858R (Homo sapiens, UniProt P00533, L858R/T790M); assay: Mutant EGFR T790M/L858R activity inhibition assay (Caliper mobility shift); format: biochemical; conditions: read-out: enzyme activity inhibition (IC50) EGFR T790M/L858R
T1 construct: purchased Invitrogen PR8911A
T1 sequence (P00533 25-1210 T790M/L858R): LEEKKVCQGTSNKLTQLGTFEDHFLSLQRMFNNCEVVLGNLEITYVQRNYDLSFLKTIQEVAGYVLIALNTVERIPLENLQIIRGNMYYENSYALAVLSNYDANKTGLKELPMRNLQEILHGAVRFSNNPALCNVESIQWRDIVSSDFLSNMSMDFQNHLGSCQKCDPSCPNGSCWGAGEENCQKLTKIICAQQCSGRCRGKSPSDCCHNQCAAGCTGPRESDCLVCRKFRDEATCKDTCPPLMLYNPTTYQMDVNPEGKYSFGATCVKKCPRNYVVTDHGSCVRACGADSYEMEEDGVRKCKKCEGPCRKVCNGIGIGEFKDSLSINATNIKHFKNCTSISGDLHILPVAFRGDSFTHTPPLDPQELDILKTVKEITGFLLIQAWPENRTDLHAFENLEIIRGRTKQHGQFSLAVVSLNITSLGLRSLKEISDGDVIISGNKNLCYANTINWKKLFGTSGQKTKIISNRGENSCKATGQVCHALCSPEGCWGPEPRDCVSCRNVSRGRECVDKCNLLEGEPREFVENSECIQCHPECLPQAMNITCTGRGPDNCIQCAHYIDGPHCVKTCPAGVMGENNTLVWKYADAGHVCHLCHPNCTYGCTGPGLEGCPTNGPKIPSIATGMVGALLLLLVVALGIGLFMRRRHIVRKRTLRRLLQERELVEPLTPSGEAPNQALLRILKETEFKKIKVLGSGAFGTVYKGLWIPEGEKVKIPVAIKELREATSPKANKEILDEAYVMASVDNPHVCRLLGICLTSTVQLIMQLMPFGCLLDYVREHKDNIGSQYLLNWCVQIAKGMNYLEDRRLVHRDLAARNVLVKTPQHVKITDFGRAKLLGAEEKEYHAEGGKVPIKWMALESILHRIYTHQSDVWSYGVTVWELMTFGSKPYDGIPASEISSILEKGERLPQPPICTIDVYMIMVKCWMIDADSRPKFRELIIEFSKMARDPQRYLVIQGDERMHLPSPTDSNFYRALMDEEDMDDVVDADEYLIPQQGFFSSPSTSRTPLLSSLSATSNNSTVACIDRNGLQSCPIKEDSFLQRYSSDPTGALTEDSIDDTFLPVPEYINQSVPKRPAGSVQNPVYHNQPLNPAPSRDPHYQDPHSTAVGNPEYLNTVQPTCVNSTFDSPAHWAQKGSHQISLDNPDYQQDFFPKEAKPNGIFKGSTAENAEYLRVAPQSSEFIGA
Method: The assay procedure is as follows. […] 5 μl of the compound dissolved in 10% DMSO at a concentration of 5-fold of the final reaction concentration was added to a 384 well plate. 5 μl of 10% DMSO was used in a no-compound control well, while 5 μl of a kinase buffer was used in a no-enzyme activity control well. […] The conversion rate was read on Caliper EZ Reader II (Caliper Life Sciences). The conversion rate was then converted to inhibitory rate.
As used herein, “max” refers to the conversion rate of the DMSO no-compound control well, and “min” refers to the conversion rate of the no-enzyme activity control well. A curve was obtained by plotting the inhibitory rate as a function of the compound concentration. The XLFit excel add-in version 4.3.1 software was used to fit the curve and calculate the IC50. Inhibitory rate %=(max−conversion rate)/(max−min)×100.

H358 = assay: Inhibition assay on tumor cell proliferation (CellTiter-Glo), H358; format: cell-based, Human; conditions: Homo sapiens, NCI-H358; H358 (wild-type EGFR), 72 hours, 10% bovine serum
Method: By using a CellTiter-Glo luminescence cell viability test kit (Promega, # G7572), the content of adenosine triphosphate (ATP) was determined to assess the cell viability.
Human colon cancer cell line LOVO and human non-small-cell lung cancer H358 express wild-type EGFR. Human non-small-cell lung cancer cell line HCC827 carries deletion mutation in exon 19 (ex19del). Those cell lines are purchased from Shanghai Fudan IBS Cell Resource Center and American Tissue Culture Collection (ATCC).
The assay procedure is as follows. The cells in a cell culture plate were digested with a pancreatic enzyme, re-suspended in a DPBS culture medium, and had the cell density counted by Scepter automated cytometer (Millipore # PHCC00000). The cells were diluted to a solution of 44,000 cells per ml. The cell solution with adjusted density was added to the cell assay plate at 90 microliters per well. The plate was placed in an incubator with 5% CO2 at 37° C. for 24 hours of incubation, and then added with different concentrations of subject compounds. The cells were incubated for 72 hours with the compounds in presence of 10% bovine serum. The content of ATP was determined by a CellTiter-Glo® Luminescent Cell Viability Assay kit (see the manufacturer's instruction for details) to evaluate cell-growth inhibition.
Briefly, 30 μl of CellTiter-Glo® reagent was added to each well, and then shaken for 10 minutes to induce cell lysis. The fluorescent signal was detected and recorded by Fluoroskan Ascent FL (Thermo). The max signal value was obtained from the cells treated by dimethyl sulfoxide for 72 hours. The min signal value was obtained from the medium alone (the number of the cells was 0). Inhibitory rate %=(max signal value−compound signal value)/(max signal value−min signal value)×100. The data was processed by GraphPad Prism V5.0 software (GraphPad Software, San Diego, Calif.). Sigmoidal dose-response curve fitting was performed to calculate the IC50 value.

| SMILES | IC50 (H1975) [nM] | IC50 (EGFR T790M/L858R) [nM] | IC50 (H358) [nM] | melting point [°C] |
| --- | --- | --- | --- | --- |
| C=CC(=O)Nc1cc(Nc2nccc(-n3ccc4ccccc43)n2)c(OC)cc1N1CCN(C)CC1 [Compound 84, N-(5-((4-(1H-indol-1-yl)pyrimidin-2-yl)amino)-4-methoxy-2-(4-methylpiperazin-1-yl)phenyl)acrylamide] | – | 10 to 50 | – | 204 to 205 |
| CCC#CC(=O)Nc1cc(Nc2nccc(-n3ccc4ccccc43)n2)c(OC)cc1N(C)CCN(C)C [Compound 74, N-(5-((4-(1H-indol-1-yl)pyrimidin-2-yl)amino)-2-((2-(dimethylamino)ethyl)(methyl)amino)-4-methoxyphenyl)pent-2-ynamide] | – | 1 to 10 | – | 149.4 to 151.7 |
| C=C(C)C(=O)Nc1cc(Nc2nccc(-n3ccc4ccccc43)n2)c(OC)cc1N(C)CCN(C)C [Compound 68, N-(5-((4-(1H-indol-1-yl)pyrimidin-2-yl)amino)-2-((2-(dimethylamino)ethyl)(methyl)amino)-4-methoxyphenyl)methacryl amide] | – | 10 to 50 | – | 145.7 to 147.1 |
| C/C=C/C(=O)Nc1cc(Nc2nccc(-n3ccc4ccccc43)n2)c(OC)cc1N(C)CCN(C)C [Compound 66, (E)-N-(5-((4-(1H-indol-1-yl)pyrimidin-2-yl)amino)-2-((2-(dimethylamino)ethyl)(methyl)amino)-4-methoxyphenyl)but-2-enamide] | – | 10 to 50 | – | 150.2 to 152.8 |
| C=CC(=O)Nc1cc(Nc2nccc(-n3c(=O)n(C)c4ccccc43)n2)c(C(C)C)cc1N(C)CCN(C)C [Compound 132, N-(2-((2-(dimethylamino)ethyl)(methyl)amino)-4-isopropyl-5-((4-(3-methyl-2-oxo-2,3-dihydro-1H-benzo[d]imidazol-1-yl)pyrimidin-2-yl)amino)phenyl)acrylamide] | < 10 | 1 to 10 | > 1000 | – |
| CC/C=C/C(=O)Nc1cc(Nc2nccc(-n3ccc4ccccc43)n2)c(OC)cc1N(C)CCN(C)C [Compound 67, (E)-N-(5-((4-(1H-indol-1-yl)pyrimidin-2-yl)amino)-2-((2-(dimethylamino)ethyl)(methyl)amino)-4-methoxyphenyl)pent-2-enamide] | – | 50 to 100 | – | 124.3 to 126.2 |
| C=CC(=O)Nc1cc(Nc2nccc(-n3ccc4ccccc43)n2)c(OC)cc1N(C)CCN1CCOCC1 [Compound 82, N-{5-(4-indol-1-yl-pyrimidin-2-ylamino)-4-methoxy-2-[methyl-(2-morpholin-4-yl-ethyl)-amino]-phenyl}-acryl amide] | 50 to 100 | 1 to 10 | > 1000 | – |
| C=CC(=O)Nc1cc(Nc2ncc(NC)c(-n3ccc4ccccc43)n2)c(OC)cc1N(C)CCN(C)C [Compound 11, N-(5-(4-(1H-indol-1-yl)-5-(methylamino)pyrimidin-2-ylamino)-2-((2-(dimethylamino)ethyl)(methyl)amino)-4-methoxyphenyl)acrylamide] | – | 1 to 10 | – | 154 to 156 |
| COC/C=C/C(=O)Nc1cc(Nc2nccc(-n3ccc4ccccc43)n2)c(OC)cc1N(C)CCN(C)C [Compound 71] | – | 1 to 10 | – | – |
| C=CC(=O)Nc1cc(Nc2nccc(-n3ccc4ccccc43)n2)c(OC)cc1N(C)CCN1CCCCC1 [Compound 81, N-(5-(4-(1H-indol-1-yl)pyrimidin-2-ylamino)-4-methoxy-2-(methyl(2-(piperidin-1-yl)ethyl)amino)phenyl)acrylamide] | – | 1 to 10 | – | 131 to 136 |

Next, values leading:

| IC50 (H1975) [nM] | IC50 (EGFR T790M/L858R) [nM] | IC50 (H358) [nM] | melting point [°C] | SMILES |
| --- | --- | --- | --- | --- |
| < 10 | < 1 | 100 to 1000 | 115 to 117 | C=CC(=O)Nc1cc(Nc2nccc(-n3c(=O)n(C(C)C)c4cc(O)ccc43)n2)c(OC)cc1N(C)CCN(C)C [Compound 139, N-(2-((2-(dimethylamino)ethyl)(methyl)amino)-5-((4-(5-hydroxy-3-isopropyl-2-oxo-2,3-dihydro-1H-benzo[d]imidazol-1-yl)pyrimidin-2-yl)amino)-4-methoxyphenyl)acrylamide] |
| < 10 | < 1 | 100 to 1000 | 190 to 193 | C=CC(=O)Nc1cc(Nc2nccc(-n3c(=O)n(C)c4ccccc43)n2)ccc1N(C)CCN(C)C [Compound 125, N-(2-((2-(dimethylamino)ethyl)(methyl)amino)-5-((4-(3-methyl-2-oxo-2,3-dihydro-1H-benzo[d]imidazol-1-yl)pyrimidin-2-yl)amino)phenyl)acrylamide] |
| – | 1 to 10 | – | 71 to 78 | C=CC(=O)Nc1cc(Nc2nccc(-n3c(=O)n(C)c4ccccc43)n2)c(OCCOC)cc1N(C)CCN(C)C [Compound 120, N-{2-[(2-dimethylamino-ethyl)-methyl-amino]-4-(2-methoxy-ethoxy)-5-[4-(3-methyl-2-oxo-2,3-dihydro-benzoimidazol-1-yl)-pyrimidin-2-ylamino]-phenyl}-acrylamide] |
| < 10 | < 1 | 100 to 1000 | 177 to 179 | C=CC(=O)Nc1cc(Nc2nccc(-n3c(=O)n(C4CC4)c4cc(C#N)ccc43)n2)c(OC)cc1N(C)CCN(C)C [Compound 101, N-(5-((4-(5-cyano-3-cyclopropyl-2-oxo-2,3-dihydro-1H-benzo[d]imidazol-1-yl)pyrimidin-2-yl)amino)-2-((2-(dimethylamino)ethyl)(methyl)amino)-4-methoxyphenyl)acrylamide] |
| 10 to 50 | 1 to 10 | > 1000 | 114.6 to 116.2 | C=CC(=O)Nc1cc(Nc2ncc(N(C)C)c(-n3c(=O)n(C(C)C)c4ccccc43)n2)c(OC)cc1N(C)CCN(C)C [Compound 135, N-(5-((5-(dimethylamino)-4-(3-isopropyl-2-oxo-2,3-dihydro-1H-benzo[d]imidazol-1-yl)pyrimidin-2-yl)amino)-2-((2-(dimethylamino)ethyl)(methyl)amino)-4-methoxyphenyl)acrylamide] |
| < 10 | 1 to 10 | 100 to 1000 | 124 to 126 | C=CC(=O)Nc1cc(Nc2nccc(-n3c(=O)n(C4CC4)c4cc(Cl)ccc43)n2)c(OC)cc1N(C)CCN(C)C [Compound 99, N-(5-((4-(5-chloro-3-cyclopropyl-2-oxo-2,3-dihydro-1H-benzo[d]imidazol-1-yl)pyrimidin-2-yl)amino)-2-((2-(dimethylamino)ethyl)(methyl)amino)-4-methoxyphenyl)acrylamide] |
| < 10 | < 1 | > 1000 | 68 to 72 | C=CC(=O)Nc1cc(Nc2nccc(-n3c(=O)n(CC4CC4)c4ccccc43)n2)c(OC)cc1N(C)CCN(C)C [Compound 63, N-(5-((4-(3-(cyclopropylmethyl)-2-oxo-2,3-dihydro-1H-benzo[d]imidazol-1-yl)pyrimidin-2-yl)amino)-2-((2-(dimethylamino)ethyl)(methyl)amino)-4-methoxyphenyl)acrylamide] |
| < 10 | < 1 | 100 to 1000 | – | C=CC(=O)Nc1cc(Nc2nccc(-n3c(=O)n(CC4CC4)c4cc(F)ccc43)n2)c(OC)cc1N(C)CCN(C)C [Compound 105, N-(5-(4-(3-(cyclopropylmethyl)-5-fluoro-2-oxo-2,3-dihydro-1H-benzo[d]imidazol-1-yl)pyrimidin-2-ylamino)-2-((2-(dimethylamino)ethyl)(methyl)amino)-4-methoxyphenyl)acrylamide] |
